According to patent EP0738149B1 (priority 1994, dated 1995):

Assays:
[1] = system: mice; details: Mus musculus, ip, read-out: MICE scMet ED50, mice, i.p.; Table 16
[2] = system: rats; test: Electrically kindled rat model of epilepsy, p.o.; type: in vivo; details: po, read-out: ED50 (prevented seizures)
Excerpt: The rat electrical kindling model of epilepsy has been known to show efficacy of antiepileptic agents against complex partial seizures that evolve into generalized motor seizures. In these tests, rats were electrically stimulated via corneal electrodes twice daily for approximately 5 days and then once daily for an additional 10 days. Once the seizure criteria, as described by R.J. Racine, et al., Electroenceph. Clin. Neurophysiol. 32: 281-294 (1972), were met, the test substance was administered p.o. to rats, and the rat electrically stimulated, and observed for the presence or absence of a seizure.

[3] = system: hypoxic rat; test: α-MpT-induced hypokinesia in hypoxic rat (locomotor activity), Experiments 1A-1C; type: in vivo; details: Mean ± SEM
Description: Experiment 1A. Wistar male rats, 15-19 month-old, were exposed to a single hypoxic episode which is assumed to decrease the level of dopamine in the brain. […] The drugs were administered by gavage, using a special syringe equipped with rounded tip that could be directed into the stomach. The dose was contained in 0.3-0.5 mL of distilled water. The rats were pretreated for 70-80 days with daily doses of the test drugs and received intra-peritoneal (i.p.) α-MpT (α-methyl-p-tyrosine) at a dose of 100mg/kg in 0.3-0.5 mL saline. Controls received saline. α-MpT is assumed to inhibit the formation of L-Dopa from tyrosine and, consequently the formation of dopamine itself. Lack of central dopamine is expressed as hypokinesia. Following the injection of α-MpT, motor activity was recorded for the duration of 10 hours. Locomotion scores were taken in seven fully-computerized cages (26x25cm) having a grid of infra-red beams at 4 cm-intervals. Crossing of a beam initiated an electric signal which was fed into a computer. The number of crossings over a given period provided a measure of locomotion. The records gave two data categories: (a) "small movements" originating in stationary activities such as grooming and scratching and (b) "big movements" originating in ambulation and recorded as the simultaneous crossing of more than two beams."Total movements" include both categories. Counts of motor activity in the presence of α-MpT were related as percent with respect to counts in its absence in the corresponding control group (unlesioned or hypoxia-lesioned). Motor activity counts of drug-treated rats were related to the hypoxia saline-treated as 100%. All behavioral tests were performed 90-120 min. after administration of the last dose of the test compound.
Experiment 1B. […] The drugs were given i.p. • (3) Duration of the treatment: 21 days. • (4) Dose of α-MpT: 70 mg/Kg.

[4] = system: rats; test: Closed head injury in rats: brain oedema (water content), Experiments 4A-4E; type: in vivo; details: Exp 4A; relative to normal brain water content of 78.5 %
Description: After the second evaluation of motor function, the animals were sacrificed and the brains were removed. A piece of tissue was weighed to yield a wet weight(WW), then dried in an oven for 24 hours at 95C and re-weighed to yield a dry weight(DW). Percentage water content in the tissue was calculated as (WW-DW)x100/WW.

[5] = system: rats; test: Closed head injury in rats: motor function (Neurological Severity Status), Experiments 4A-4E
[6] = Exp 1A, 0.5mg/kg/Day gavage 70-80 days, α-MpT 100mg/kg i.p., Hour 1
[7] = Exp 1A, 0.5mg/kg/Day gavage 70-80 days, α-MpT 100mg/kg i.p., Hour 2
[8] = Exp 1A, 0.5mg/kg/Day gavage 70-80 days, α-MpT 100mg/kg i.p., Hour 3
[9] = Exp 1A, 0.5mg/kg/Day gavage 70-80 days, α-MpT 100mg/kg i.p., Hour 4
[10] = Exp 1A, 0.5mg/kg/Day gavage 70-80 days, α-MpT 100mg/kg i.p., Hour 5
[11] = Exp 1A, 0.5mg/kg/Day gavage 70-80 days, α-MpT 100mg/kg i.p., Hour 7
[12] = Exp 1A, 0.5mg/kg/Day gavage 70-80 days, α-MpT 100mg/kg i.p., Hour 8
[13] = Exp 1A, 0.5mg/kg/Day gavage 70-80 days, α-MpT 100mg/kg i.p., Hour 9
[14] = Exp 1A, 0.5mg/kg/Day gavage 70-80 days, α-MpT 100mg/kg i.p., Hour 10
[15] = Exp 1B, 0.3 mg/Kg daily i.p. 21 days, α-MpT 70 mg/Kg, Hour 1
[16] = Exp 1B, 0.3 mg/Kg daily i.p. 21 days, α-MpT 70 mg/Kg, Hour 2
[17] = Exp 1B, 0.3 mg/Kg daily i.p. 21 days, α-MpT 70 mg/Kg, Hour 3
[18] = Exp 1B, 0.3 mg/Kg daily i.p. 21 days, α-MpT 70 mg/Kg, Hour 4
[19] = Exp 1B, 0.3 mg/Kg daily i.p. 21 days, α-MpT 70 mg/Kg, Hour 5
[20] = Exp 1B, 0.3 mg/Kg daily i.p. 21 days, α-MpT 70 mg/Kg, Hour 6
[21] = Exp 1B, 0.3 mg/Kg daily i.p. 21 days, α-MpT 70 mg/Kg, Hour 7
[22] = Exp 1B, 0.3 mg/Kg daily i.p. 21 days, α-MpT 70 mg/Kg, Hour 8
[23] = Exp 1B, 0.3 mg/Kg daily i.p. 21 days, α-MpT 70 mg/Kg, Hour 9
[24] = Exp 1B, 0.3 mg/Kg daily i.p. 21 days, α-MpT 70 mg/Kg, Hour 10
[25] = Exp 4A, 0.1mg/kg i.p. at 0,4,8 and 12 hours post-trauma
[26] = Exp 4B, 0.1mg/kg once a day for 14 days

SMILES: CC(=O)N[C@@H]1CCc2ccccc21 [Example 18, (R)-N-Acetyl-1-aminoindan]
- ED50 [1]: 66 mg/kg
- ED50 [2]: 24.6 mg/kg

SMILES: C#CCN(C)[C@H](C)Cc1ccccc1 [deprenyl]
- Locomotor activity after α-MpT treatment, recorded as big movements [3, 6]: 61 ± 15%
- Locomotor activity after α-MpT treatment, recorded as total movements [3, 6]: 88 ± 23%
- Locomotor activity after α-MpT treatment, recorded as big movements [3, 7]: 103 ± 22%
- Locomotor activity after α-MpT treatment, recorded as total movements [3, 7]: 131 ± 30%
- Locomotor activity after α-MpT treatment, recorded as big movements [3, 8]: 184 ± 39%
- Locomotor activity after α-MpT treatment, recorded as total movements [3, 8]: 141 ± 26%
- Locomotor activity after α-MpT treatment, recorded as big movements [3, 9]: 85 ± 34%
- Locomotor activity after α-MpT treatment, recorded as total movements [3, 9]: 191 ± 45%
- Locomotor activity after α-MpT treatment, recorded as big movements [3, 10]: 171 ± 61%
- Locomotor activity after α-MpT treatment, recorded as total movements [3, 10]: 229 ± 40%
- Locomotor activity after α-MpT treatment, recorded as big movements ([3]; Exp 1A, 0.5mg/kg/Day gavage 70-80 days, α-MpT 100mg/kg i.p., Hour 6): 65 ± 17%
- Locomotor activity after α-MpT treatment, recorded as big movements [3, 11]: 96 ± 29%
- Locomotor activity after α-MpT treatment, recorded as total movements [3, 11]: 204 ± 7%
- Locomotor activity after α-MpT treatment, recorded as big movements [3, 12]: 91 ± 40%
- Locomotor activity after α-MpT treatment, recorded as total movements [3, 12]: 131 ± 23%
- Locomotor activity after α-MpT treatment, recorded as big movements [3, 13]: 84 ± 23%
- Locomotor activity after α-MpT treatment, recorded as total movements [3, 13]: 137 ± 21%
- Locomotor activity after α-MpT treatment, recorded as big movements [3, 14]: 29 ± 10%
- Locomotor activity after α-MpT treatment, recorded as total movements [3, 14]: 116 ± 22%
- Locomotor activity after α-MpT treatment, recorded as big movements [3, 15]: 70 ± 10%
- Locomotor activity after α-MpT treatment, recorded as total movements [3, 15]: 68 ± 9%
- Locomotor activity after α-MpT treatment, recorded as big movements [3, 16]: 91 ± 19%
- Locomotor activity after α-MpT treatment, recorded as total movements [3, 16]: 95 ± 11%
- Locomotor activity after α-MpT treatment, recorded as big movements [3, 17]: 85 ± 19%
- Locomotor activity after α-MpT treatment, recorded as total movements [3, 17]: 126 ± 22%
- Locomotor activity after α-MpT treatment, recorded as big movements [3, 18]: 88 ± 23%
- Locomotor activity after α-MpT treatment, recorded as total movements [3, 18]: 118 ± 20%
- Locomotor activity after α-MpT treatment, recorded as big movements [3, 19]: 87 ± 11%
- Locomotor activity after α-MpT treatment, recorded as total movements [3, 19]: 83 ± 24%
- Locomotor activity after α-MpT treatment, recorded as big movements [3, 20]: 67 ± 8%
- Locomotor activity after α-MpT treatment, recorded as total movements [3, 20]: 78 ± 9%
- Locomotor activity after α-MpT treatment, recorded as big movements [3, 21]: 62 ± 9%
- Locomotor activity after α-MpT treatment, recorded as total movements [3, 21]: 56 ± 7%
- Locomotor activity after α-MpT treatment, recorded as big movements [3, 22]: 70 ± 9%
- Locomotor activity after α-MpT treatment, recorded as total movements [3, 22]: 85 ± 13%
- Locomotor activity after α-MpT treatment, recorded as big movements [3, 23]: 132 ± 24%
- Locomotor activity after α-MpT treatment, recorded as total movements [3, 23]: 111 ± 12%
- Locomotor activity after α-MpT treatment, recorded as big movements [3, 24]: 54 ± 13%
- Locomotor activity after α-MpT treatment, recorded as total movements [3, 24]: 61 ± 12%

SMILES: N[C@@H]1CCc2ccccc21 [R-AI, (R)-1-aminoindan]
- reduction in trauma-induced oedema [4]: 50%
- NSS 1hr [5, 25]: 16.8
- NSS 24hr [5, 25]: 8.3
- ΔNSS ([5]; Exp 4A, 0.1mg/kg i.p. at 0,4,8 and 12 hours post-trauma, change 1 hour to 24 hours): 8.5±0.5
- NSS at 1hr [5, 26]: 17.7±0.5
- ΔNSS at 24hr [5, 26]: 7.3±0.8
- ΔNSS at 48hr [5, 26]: 9.3±0.8
- ΔNSS at 7d [5, 26]: 11.8±0.5
- ΔNSS at 14d [5, 26]: 14.0±0.4
- NSS 1hr ([5]; Exp 4C, 0.03 mg/kg): 16.3
- NSS 24hr ([5]; Exp 4C, 0.03 mg/kg): 10.4
- ΔNSS ([5]; Exp 4C, 0.03 mg/kg): 5.9±0.3
- NSS 1hr ([5]; Exp 4C, 0.1 mg/kg): 16.2
- NSS 24hr ([5]; Exp 4C, 0.1 mg/kg): 10.4
- ΔNSS ([5]; Exp 4C, 0.1 mg/kg): 5.8±0.4
- NSS 1hr ([5]; Exp 4C, 0.3 mg/kg): 16.6
- NSS 24hr ([5]; Exp 4C, 0.3 mg/kg): 8.5
- ΔNSS ([5]; Exp 4C, 0.3 mg/kg): 8.1±0.5
- NSS 1hr ([5]; Exp 4C, 1.0 mg/kg): 16.8
- NSS 24hr ([5]; Exp 4C, 1.0 mg/kg): 8.8
- ΔNSS ([5]; Exp 4C, 1.0 mg/kg): 8.0±0.5
- NSS 1hr ([5]; Exp 4C, 3.0 mg/kg): 16.4
- NSS 24hr ([5]; Exp 4C, 3.0 mg/kg): 7.8
- ΔNSS ([5]; Exp 4C, 3.0 mg/kg): 8.6±0.7
- ΔNSS ([5]; Exp 4D, 1mg/kg, times of administration 0): 8.8±10.8
- ΔNSS ([5]; Exp 4D, 1mg/kg, times of administration 0 + 4h): 8.0±1.0
- ΔNSS ([5]; Exp 4D, 1mg/kg, times of administration 0 + 8h): 8.0±0.1
- ΔNSS ([5]; Exp 4D, 1mg/kg, times of administration 0 + 12h): 8.7±0.6
- ΔNSS ([5]; Exp 4D, 1mg/kg, times of administration 0,4,8,12h): 8.2±0.7
- ΔNSS ([5]; Exp 4E, 1mg/kg given + 1h post head trauma): 8.4±0.6
- ΔNSS ([5]; Exp 4E, 1mg/kg given + 2h post head trauma): 7.0±0.5
- ΔNSS ([5]; Exp 4E, 1mg/kg given + 3h post head trauma): 7.4±0.5
